Measurements: patent US10381110B2, “Molecules” (University of Dundee, priority 2010, dated 2019)
Where a name gives a salt, the structure may show the parent alone. Read-outs that look alike come from different tables or passages of the source.

Columns and labels:
5-HT1B = 5-HT1B (Homo sapiens, UniProt P28222); experiment: Secondary radioligand binding assay (Ki)
Protocol: (§1) Assay Buffer: Standard Binding Buffer (50 mM Tris-HCl, 10 mM MgCl2, 1 mM EDTA, pH 7.4)
(§2) Membrane Fraction Source: Transiently or stably transfected cell lines (e.g., HEK293, COS, CHO, NIH3T3)
(§3) Radioligand is diluted to five times the assay concentration (see Table 18) in Standard Binding Buffer. Typically, the assay concentration of radioligand is a value between one half the KD and the KD of a particular radioligand at its target. 50 μl aliquots of radioligand are dispensed into the wells of a 96-well plate containing 100 μl of Standard Binding Buffer. Then, duplicate 50 μl aliquots of the test and reference compound dilutions are added.
(§4) The 250 μl reactions are incubated at room temperature and shielded from light (to prevent photolysis of light-sensitive ligands) for 1.5 hours, then harvested by rapid filtration onto Whatman GF/B glass fiber filters pre-soaked with 0.3% polyethyleneimine using a 96-well Brandel harverster. Four rapid 500 μl washes are performed with chilled Standard Binding Buffer to reduce non-specific binding. Filters are placed in 6 ml scintillation tubes and allowed to dry overnight. The next day, 4 ml of EcoScint scintillation cocktail (National Diagnostics) are added to each tube. The tubes are capped, labeled, and counted by liquid scintillation counting. […] The filter mats are dried, then scintillant is melted onto the filters and the radioactivity retained on the filters is counted in a Microbeta scintillation counter.
(§5) Raw data (dpm) representing total radioligand binding (i.e. specific+non-specific binding) are plotted as a function of the logarithm of the molar concentration of the competitor (i.e. test or reference compound).

5-HT7 = 5-HT7 (Homo sapiens, UniProt P34969); experiment: Secondary radioligand binding assay (Ki)
Protocol: as §1, §2, §3, §4, §5

dopamine D3 = dopamine D3 (Homo sapiens, UniProt P35462); experiment: Secondary radioligand binding assay (Ki); details: for α1/D2: Table 23: Selectivity of Dopamine D3 over average of α1 Receptors; for α1A/D2 / α1B/D2 / α1D/D2: Table 23: Selectivity of Dopamine D3 over α1 Receptors, ratio of Ki
Protocol: as §3, §4, §5
(§6) Assay Buffers: Dopamine Binding Buffer (50 mM NaCl, 50 mM HEPES-HCl, 5 mM MgCl2, 0.5 mM EDTA, pH 7.4)
(§7) Membrane Fraction Source: Transiently or stably transfected cell lines (e.g. HEK293, COS, CHO, NIH3T3)
(§8) The method is carried out in the manner described for the serotonin receptor assay above. Eleven dilutions (5× assay concentration) of the test and reference (see Table 19) compounds are prepared in Dopamine Binding Buffer by serial dilution, as previously described. Radioligand is diluted to five times the assay concentration (see Table 20) in Dopamine Binding Buffer.

5-HT1D = 5-HT1D (Homo sapiens, UniProt P28221); experiment: Secondary radioligand binding assay (Ki)
Protocol: as §1, §2, §3, §4, §5

dopamine D2 [1] = biological target: T1, dopamine D2 (Homo sapiens, UniProt P14416); experiment: Primary radioligand binding assay (NIMH PDSP); details: primary radiobinding assay, [3H]N-methylspiperone
Alpha1D [2] = biological target: T2, Alpha1D (Homo sapiens, UniProt P25100); experiment: Secondary radioligand binding assay (Ki)
T2 sequence (P25100 1-572): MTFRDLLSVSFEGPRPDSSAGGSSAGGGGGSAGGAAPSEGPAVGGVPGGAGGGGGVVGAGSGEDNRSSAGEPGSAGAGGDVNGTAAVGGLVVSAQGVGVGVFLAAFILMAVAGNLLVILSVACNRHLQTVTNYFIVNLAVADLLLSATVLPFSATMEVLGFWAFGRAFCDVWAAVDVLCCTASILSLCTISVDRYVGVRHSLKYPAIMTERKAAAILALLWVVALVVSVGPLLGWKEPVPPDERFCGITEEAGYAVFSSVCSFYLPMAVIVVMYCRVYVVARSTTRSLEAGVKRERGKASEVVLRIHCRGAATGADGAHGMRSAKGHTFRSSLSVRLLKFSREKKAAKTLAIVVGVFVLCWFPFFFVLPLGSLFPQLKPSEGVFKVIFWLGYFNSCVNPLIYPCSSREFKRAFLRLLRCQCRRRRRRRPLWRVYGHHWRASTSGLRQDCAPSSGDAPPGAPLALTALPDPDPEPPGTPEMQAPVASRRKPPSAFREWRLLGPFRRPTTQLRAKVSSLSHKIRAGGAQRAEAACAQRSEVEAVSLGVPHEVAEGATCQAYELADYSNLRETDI
Protocol: as §3, §4, §5
(§9) Adrenergic Receptors: α1A, α1B, α2A, α2B, α2C, β1, β2, β3
as §7
(§10) The method is carried out in the manner described for the serotonin receptor assay above, except where described below. Eleven dilutions (5× assay concentration) of the test and reference (see Table 20) compounds are prepared in the appropriate buffer by serial dilution, as previously described. Radioligand is diluted to five times the assay concentration (see Table 21) in the appropriate buffer.
(§11) The 250 μl reactions are incubated at room temperature and shielded from light (to prevent photolysis of light-sensitive ligands) for 1 hour (for α1 receptors, 40 min for α2 receptors, and 1.5 hours for β receptors), then harvested by rapid filtration onto Whatman GF/B glass fiber filters pre-soaked with 0.3% polyethyleneimine using a 96-well Brandel harverster. Four rapid 500-μl washes are performed with chilled distilled water (for α1 and β receptors) or 0.1% polyethyleneimine (for α2 receptors) to reduce non-specific binding. Filters are placed in 6 ml scintillation tubes and allowed to dry overnight and the samples are treated to obtain data as described above.

α1B (Alpha1B) = biological target: T3, α1B (Alpha1B) (Homo sapiens, UniProt P35368); experiment: Secondary radioligand binding assay (Ki)
T3 sequence (P35368 1-520): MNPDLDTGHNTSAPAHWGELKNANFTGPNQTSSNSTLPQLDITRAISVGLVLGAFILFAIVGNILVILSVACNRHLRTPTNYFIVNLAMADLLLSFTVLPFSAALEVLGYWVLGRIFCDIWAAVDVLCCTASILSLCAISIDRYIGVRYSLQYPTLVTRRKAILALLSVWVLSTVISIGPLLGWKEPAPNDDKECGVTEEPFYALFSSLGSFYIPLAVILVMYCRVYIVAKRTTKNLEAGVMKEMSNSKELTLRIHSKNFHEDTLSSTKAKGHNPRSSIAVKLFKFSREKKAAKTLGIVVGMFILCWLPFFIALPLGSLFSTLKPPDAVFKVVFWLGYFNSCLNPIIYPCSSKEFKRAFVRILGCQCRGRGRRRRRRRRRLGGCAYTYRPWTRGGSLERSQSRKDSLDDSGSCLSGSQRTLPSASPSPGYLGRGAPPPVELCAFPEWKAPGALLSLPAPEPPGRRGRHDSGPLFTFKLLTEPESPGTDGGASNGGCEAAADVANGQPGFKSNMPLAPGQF
Protocol: as §3, §4, §5, §9, §7, §10, §11

Alpha1D [3] = biological target: T2, Alpha1D; experiment: Primary radioligand binding assay (NIMH PDSP); details: primary radiobinding assay, [3H]Prazosin
dopamine D2 [4] = biological target: T1, dopamine D2; experiment: Secondary radioligand binding assay (Ki); details: for α1/D2: Table 22: Selectivity of Dopamine D2 over average of α1 Receptors; for α1A/D2 / α1B/D2 / α1D/D2: Table 22: Selectivity of Dopamine D2 over α1 Receptors, ratio of Ki
Protocol: as §3, §4, §5, §6, §7, §8

5-HT2A = 5-HT2A (Homo sapiens, UniProt P28223); experiment: Secondary radioligand binding assay (Ki)
Protocol: as §1, §2, §3, §4, §5

dopamine D1 = dopamine D1 (Homo sapiens, UniProt P21728); experiment: Secondary radioligand binding assay (Ki)
Protocol: as §3, §4, §5, §6, §7, §8

5-HT2C = biological target: T4, 5-HT2C (Homo sapiens, UniProt P28335); experiment: Secondary radioligand binding assay (Ki)
T4 sequence (P28335 33-458): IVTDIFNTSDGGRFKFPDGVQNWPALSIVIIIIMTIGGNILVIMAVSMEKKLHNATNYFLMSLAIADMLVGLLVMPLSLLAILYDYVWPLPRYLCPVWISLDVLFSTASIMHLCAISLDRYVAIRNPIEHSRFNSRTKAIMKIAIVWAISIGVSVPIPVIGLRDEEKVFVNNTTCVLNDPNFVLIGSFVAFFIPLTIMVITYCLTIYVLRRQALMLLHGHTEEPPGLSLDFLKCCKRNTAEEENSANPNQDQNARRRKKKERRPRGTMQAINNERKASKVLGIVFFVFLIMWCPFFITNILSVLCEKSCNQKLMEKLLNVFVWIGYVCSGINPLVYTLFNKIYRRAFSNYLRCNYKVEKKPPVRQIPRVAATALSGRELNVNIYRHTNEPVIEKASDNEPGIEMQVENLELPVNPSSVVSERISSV
Protocol: as §1, §2, §3
The 250 μl reactions are incubated at room temperature and shielded from light (to prevent photolysis of light-sensitive ligands) for 1.5 hours, then harvested by rapid filtration onto Whatman GF/B glass fiber filters pre-soaked with 0.3% polyethyleneimine using a 96-well Brandel harverster. Four rapid 500 μl washes are performed with chilled Standard Binding Buffer to reduce non-specific binding. Filters are placed in 6 ml scintillation tubes and allowed to dry overnight. […] The tubes are capped, labeled, and counted by liquid scintillation counting. […] The filter mats are dried, then scintillant is melted onto the filters and the radioactivity retained on the filters is counted in a Microbeta scintillation counter. […]

[5] = read-out: Experimental Receptor Binding Data-Ki D3, Table 25, GPCR panel
[6] = read-out: Experimental Receptor Binding Data-Ki ALPHA_1D, Table 25, GPCR panel
[7] = read-out: Experimental Receptor Binding Data-Ki ALPHA_1B, Table 25, GPCR panel
[8] = read-out: Experimental Receptor Binding Data-Ki D2, Table 25, GPCR panel
[9] = read-out: Experimental Receptor Binding Data-Ki D1, Table 25, GPCR panel

T1 sequence (P14416 whole entry, species assumed): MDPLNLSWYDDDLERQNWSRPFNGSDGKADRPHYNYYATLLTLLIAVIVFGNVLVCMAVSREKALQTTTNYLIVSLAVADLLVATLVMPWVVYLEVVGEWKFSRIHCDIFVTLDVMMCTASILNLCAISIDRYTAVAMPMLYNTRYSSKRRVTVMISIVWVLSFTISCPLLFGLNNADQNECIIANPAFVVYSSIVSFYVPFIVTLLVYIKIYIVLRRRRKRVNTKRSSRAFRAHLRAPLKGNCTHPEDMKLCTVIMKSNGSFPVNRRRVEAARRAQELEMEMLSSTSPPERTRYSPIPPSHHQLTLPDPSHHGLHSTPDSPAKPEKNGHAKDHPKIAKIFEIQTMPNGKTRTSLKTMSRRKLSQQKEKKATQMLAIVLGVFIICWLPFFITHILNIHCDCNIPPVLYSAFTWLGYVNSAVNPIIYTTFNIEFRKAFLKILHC
dopamine D1, sequence (P21728 whole entry): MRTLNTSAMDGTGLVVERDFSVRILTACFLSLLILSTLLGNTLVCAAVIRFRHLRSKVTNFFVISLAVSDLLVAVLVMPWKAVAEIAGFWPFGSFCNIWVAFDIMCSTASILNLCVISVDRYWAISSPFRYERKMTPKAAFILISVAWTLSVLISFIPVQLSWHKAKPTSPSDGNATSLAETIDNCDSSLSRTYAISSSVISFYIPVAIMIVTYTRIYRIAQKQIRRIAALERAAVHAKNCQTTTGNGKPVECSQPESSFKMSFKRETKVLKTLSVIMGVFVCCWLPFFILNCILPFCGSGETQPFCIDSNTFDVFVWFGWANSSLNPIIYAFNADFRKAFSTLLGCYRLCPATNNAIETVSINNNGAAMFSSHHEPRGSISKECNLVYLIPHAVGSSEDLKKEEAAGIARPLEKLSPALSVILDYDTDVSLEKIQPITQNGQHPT
5-HT7, sequence (P34969 whole entry, species assumed): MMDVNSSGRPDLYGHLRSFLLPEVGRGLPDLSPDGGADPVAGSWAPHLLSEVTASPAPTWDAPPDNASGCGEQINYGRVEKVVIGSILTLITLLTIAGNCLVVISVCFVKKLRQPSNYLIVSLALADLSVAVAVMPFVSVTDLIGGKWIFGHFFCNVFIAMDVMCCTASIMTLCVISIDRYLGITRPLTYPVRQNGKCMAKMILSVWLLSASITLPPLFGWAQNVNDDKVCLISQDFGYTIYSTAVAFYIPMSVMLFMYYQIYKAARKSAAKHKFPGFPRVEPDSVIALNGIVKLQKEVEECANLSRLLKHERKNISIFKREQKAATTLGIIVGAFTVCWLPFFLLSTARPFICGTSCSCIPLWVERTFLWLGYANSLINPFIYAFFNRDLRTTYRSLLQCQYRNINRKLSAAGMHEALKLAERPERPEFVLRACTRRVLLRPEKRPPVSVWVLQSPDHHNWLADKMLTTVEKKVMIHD
5-HT1D, sequence (P28221 whole entry, species assumed): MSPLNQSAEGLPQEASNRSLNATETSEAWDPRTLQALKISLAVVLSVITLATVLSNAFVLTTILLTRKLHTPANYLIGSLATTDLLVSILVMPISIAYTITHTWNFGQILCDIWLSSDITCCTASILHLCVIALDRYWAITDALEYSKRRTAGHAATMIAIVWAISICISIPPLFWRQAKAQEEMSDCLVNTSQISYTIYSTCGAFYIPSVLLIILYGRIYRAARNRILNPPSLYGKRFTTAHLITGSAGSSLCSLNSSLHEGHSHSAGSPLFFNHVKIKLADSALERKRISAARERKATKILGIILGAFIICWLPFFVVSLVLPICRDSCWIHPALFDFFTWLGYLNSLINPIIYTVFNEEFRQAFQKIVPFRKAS
5-HT1B, sequence (P28222 whole entry, species assumed): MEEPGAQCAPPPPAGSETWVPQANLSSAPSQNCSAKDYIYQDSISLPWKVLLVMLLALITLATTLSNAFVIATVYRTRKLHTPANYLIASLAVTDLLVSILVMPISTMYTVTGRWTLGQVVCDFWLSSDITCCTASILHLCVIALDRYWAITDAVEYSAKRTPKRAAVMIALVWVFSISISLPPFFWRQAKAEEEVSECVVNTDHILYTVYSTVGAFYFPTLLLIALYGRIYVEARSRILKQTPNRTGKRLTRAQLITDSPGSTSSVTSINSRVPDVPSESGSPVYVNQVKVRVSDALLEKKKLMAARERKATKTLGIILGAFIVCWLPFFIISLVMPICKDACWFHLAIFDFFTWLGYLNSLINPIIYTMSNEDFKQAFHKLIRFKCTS
5-HT2A, sequence (P28223 whole entry, species assumed): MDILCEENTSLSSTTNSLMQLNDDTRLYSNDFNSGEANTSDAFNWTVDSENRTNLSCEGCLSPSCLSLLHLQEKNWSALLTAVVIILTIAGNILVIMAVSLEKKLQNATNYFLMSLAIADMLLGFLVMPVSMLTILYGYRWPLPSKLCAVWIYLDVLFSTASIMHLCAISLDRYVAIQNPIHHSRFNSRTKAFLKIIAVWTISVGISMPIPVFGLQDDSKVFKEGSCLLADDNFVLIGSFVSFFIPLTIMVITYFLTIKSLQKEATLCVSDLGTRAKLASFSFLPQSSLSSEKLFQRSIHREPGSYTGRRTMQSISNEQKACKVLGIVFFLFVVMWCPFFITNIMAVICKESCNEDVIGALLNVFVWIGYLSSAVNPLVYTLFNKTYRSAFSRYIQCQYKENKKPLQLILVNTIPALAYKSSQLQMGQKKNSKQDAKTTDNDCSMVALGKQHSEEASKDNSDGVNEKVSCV
dopamine D3, sequence (P35462 whole entry): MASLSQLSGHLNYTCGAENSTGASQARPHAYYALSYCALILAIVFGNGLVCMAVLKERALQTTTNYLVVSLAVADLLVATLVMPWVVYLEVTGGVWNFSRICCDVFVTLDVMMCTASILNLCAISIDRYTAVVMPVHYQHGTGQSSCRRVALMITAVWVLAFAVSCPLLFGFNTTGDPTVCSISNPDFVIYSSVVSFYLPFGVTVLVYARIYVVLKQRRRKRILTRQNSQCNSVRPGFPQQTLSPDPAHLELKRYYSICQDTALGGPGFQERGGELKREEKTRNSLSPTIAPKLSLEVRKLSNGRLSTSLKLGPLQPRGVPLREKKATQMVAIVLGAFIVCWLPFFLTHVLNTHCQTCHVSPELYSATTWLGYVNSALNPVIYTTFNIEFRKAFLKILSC

## COc1ccc2c(c1)C(=O)N(CCN1CCN(c3ccccc3OC)CC1)C2 [GFR-VII-280-HCl]
5-HT1B
  Ki: 378 nM
5-HT7
  Ki: 529 nM
Dopamine D3
  Ki: 180 nM
  α1/D2: 0.1
  α1A/D2: 0.05
  α1B/D2: 0.16
  α1D/D2: 0.03
5-HT1D
  Ki: 176 nM
Dopamine D2 [1]
  D2 (% inh): 69.8 % inh
Alpha1D [2]
  Ki: 5.1 nM
α1B (Alpha1B)
  Ki: 29.1 nM
Alpha1D [3]
  Alpha1D (% inh): 98.7 % inh
Dopamine D2 [4]
  Ki: 1740 nM
  α1/D2: 0.008
  α1A/D2: 0.005
  α1B/D2: 0.017
  α1D/D2: 0.003

## COc1ccc2c(c1)C(=O)N(CCN1CCN(c3ccccc3OC)CC1)C2 [GFR-VII-280]
5-HT1B; read-out: Experimental Receptor Binding Data-Ki 5HT1B, Table 25, GPCR panel
  Ki: 306 nM
Dopamine D3
  α1A/D2: 0.08
  α1B/D2: 0.19
  α1D/D2: 0.06
Dopamine D3; [5]
  Ki: 208 nM
Dopamine D3; read-out: KiD3
  Ki: 208 nM
5-HT1D; read-out: Experimental Receptor Binding Data-Ki 5HT1D, Table 25, GPCR panel
  Ki: 139 nM
Dopamine D2 [1]
  D2 (% inh): 66.6 % inh
Alpha1D [2]; [6]
  Ki: 12.4 nM
Alpha1D [2]; read-out: Kiα1D
  Ki: 12.4 nM
α1B (Alpha1B); [7]
  Ki: 38.7 nM
α1B (Alpha1B); read-out: Kiα1B
  Ki: 38.7 nM
Alpha1D [3]
  Alpha1D (% inh): 97.3 % inh
Dopamine D2 [4]
  α1/D2: 0.014
  α1A/D2: 0.010
  α1B/D2: 0.023
  α1D/D2: 0.008
Dopamine D2 [4]; [8]
  Ki: 1650 nM
Dopamine D2 [4]; read-out: KiD2
  Ki: 1650 nM

## COc1cc2c(cc1OC)C(=O)N(CCCCN1CCN(c3ccccc3OC)CC1)C2 [GFR-VII-285]
5-HT2A
  Ki: 270 nM
5-HT1B
  Ki: 130 nM
5-HT7
  Ki: 228 nM
Dopamine D3
  α1/D2: 0.75
  α1A/D2: 0.08
  α1B/D2: 1.8
  α1D/D2: 0.4
Dopamine D3; [5]
  Ki: 11 nM
Dopamine D3; read-out: KiD3
  Ki: 11 nM
5-HT1D
  Ki: 298 nM
Dopamine D2 [1]
  D2 (% inh): 96.2 % inh
Alpha1D [2]; [6]
  Ki: 4.4 nM
Alpha1D [2]; read-out: Kiα1D
  Ki: 4.4 nM
Dopamine D1; [9]
  Ki: 531 nM
α1B (Alpha1B); [7]
  Ki: 19.3 nM
α1B (Alpha1B); read-out: Kiα1B
  Ki: 19.3 nM
5-HT2C
  Ki: 3430 nM
Alpha1D [3]
  Alpha1D (% inh): 96.8 % inh
Dopamine D2 [4]
  α1/D2: 0.053
  α1A/D2: 0.006
  α1B/D2: 0.124
  α1D/D2: 0.028
Dopamine D2 [4]; [8]
  Ki: 156 nM
Dopamine D2 [4]; read-out: KiD2
  Ki: 156 nM

## COc1ccc2c(c1)C(=O)N(CCCN1CCN(c3ccccc3OC)CC1)C2 [GFR-VII-273]
5-HT2A
  Ki: 956 nM
5-HT1B
  Ki: 362 nM
5-HT7
  Ki: 545 nM
Dopamine D3
  Ki: 163 nM
  α1/D2: 1.0
  α1A/D2: 0.4
  α1B/D2: 1.98
  α1D/D2: 0.5
5-HT1D
  Ki: 1000 nM
Dopamine D2 [1]
  D2 (% inh): 85 % inh
Alpha1D [2]; [6]
  Ki: 81.1 nM
Alpha1D [2]; read-out: Kiα1D
  Ki: 81.1 nM
α1B (Alpha1B); [7]
  Ki: 323 nM
α1B (Alpha1B); read-out: Kiα1B
  Ki: 323 nM
Alpha1D [3]
  Alpha1D (% inh): 99.3 % inh
Dopamine D2 [4]
  Ki: 812 nM
  α1/D2: 0.12
  α1A/D2: 0.080
  α1B/D2: 0.398
  α1D/D2: 0.100

## CC1Cc2ccccc2N1C(=O)CN1CCN(Cc2ccccc2)CC1 (stereo not drawn) [STT-00185638, 2-[-4-(benzyl)-piperazin-1-yl]-1-(2-methy-2,3-dihydro-indol-1-yl)-ethanone]
5-HT7
  Ki: 4360 nM
Dopamine D3
  Ki: 3220 nM
Dopamine D2 [1]
  D2 (% inh): 66.2 % inh
Dopamine D1
  Ki: 6360 nM
Alpha1D [3]
  Alpha1D (% inh): 42.8 % inh
Dopamine D2 [4]
  Ki: 2460 nM

## COc1ccc2c(c1)CN(CCCN1CCN(c3ccccc3OC)CC1)C2=O [GFR-VII-290]
5-HT2A
  Ki: 1000 nM
5-HT7
  Ki: 732 nM
Dopamine D3
  α1/D2: 1.6
  α1A/D2: 0.4
  α1B/D2: 4.0
  α1D/D2: 0.37
Dopamine D3; [5]
  Ki: 152 nM
Dopamine D3; read-out: KiD3
  Ki: 152 nM
5-HT1D
  Ki: 829 nM
Dopamine D2 [1]
  D2 (% inh): 82.1 % inh
Alpha1D [2]; [6]
  Ki: 56 nM
Alpha1D [2]; read-out: Kiα1D
  Ki: 56 nM
Dopamine D1; [9]
  Ki: 2730 nM
α1B (Alpha1B); [7]
  Ki: 608 nM
α1B (Alpha1B); read-out: Kiα1B
  Ki: 608 nM
Alpha1D [3]
  Alpha1D (% inh): 100.5 % inh
Dopamine D2 [4]
  α1/D2: 0.177
  α1A/D2: 0.044
  α1B/D2: 0.445
  α1D/D2: 0.041
Dopamine D2 [4]; [8]
  Ki: 1370 nM
Dopamine D2 [4]; read-out: KiD2
  Ki: 1370 nM
